Values after ≈ are worked out from the molar mass of the structure shown. One block for each compound: values may come before it.
How the values were obtained:
[1] = biological target: Sodium channel protein type 5 subunit alpha (Homo sapiens, UniProt Q14524); experiment: Inhibition of human Nav1.5 expressed in HEK293 cells incubated for 1 hr in presence of veratridine and anthropleurin-C by sodium influx assay; assay type: cell-based
[2] = Lipophilicity, logD of the compound at pH 7.4 by shake flask assay based LC-MS/MS analysis; assay type: physicochemical; conditions: buffer
[3] = Metabolic stability in human liver microsomes assessed as intrinsic clearance at 1 uM measured upto 60 mins in presence of NADPH by LC-MS/MS analysis; assay type: ADME, Microsome; conditions: read-out: CLH
[4] = Metabolic stability in human hepatocytes assessed as intrinsic clearance at 1 uM measured upto 3 hrs by LC-MS/MS analysis; assay type: ADME, cell-based, Hepatocyte; conditions: read-out: CLH
Homo sapiens = species on record: Homo sapiens; experiment: Selectivity index, ratio of IC50 for human Nav1.5 expressed in HEK293 cells to IC50 for human Nav1.7 expressed in HEK293 cells; assay type: cell-based
[5] = biological target: Sodium channel protein type 2 subunit alpha (Homo sapiens, UniProt Q99250); experiment: Inhibition of full length human Nav1.2 expressed in HEK cells by whole cell voltage clamp analysis; assay type: cell-based
[6] = biological target: Sodium channel protein type 4 subunit alpha (Homo sapiens, UniProt P35499); experiment: Inhibition of full length human Nav1.4 expressed in HEK cells by whole cell voltage clamp analysis; assay type: cell-based
Cytochrome P450 3A4 = Cytochrome P450 3A4 (Homo sapiens, UniProt P08684); experiment: Inhibition of CYP3A4 (unknown origin); assay type: ADME
[7] = Kinetic solubility of compound in PBS at pH 7.4; assay type: physicochemical; conditions: read-out: Kinetic_solubility
[8] = Plasma protein binding in human assessed as unbound fraction at 5 uM after 6 hrs by LC-MS/MS analysis based equilibrium dialysis method; assay type: ADME, cell-free
[9] = Apparent permeability across apical to basolateral side in MDCK cells by transwell assay; assay type: ADME, cell-based, Canis lupus familiaris; conditions: dog
[10] = Plasma protein binding in Sprague-Dawley rat assessed as unbound fraction at 5 uM after 6 hrs by LC-MS/MS analysis based equilibrium dialysis method; assay type: ADME, cell-free
[11] = Plasma protein binding in Beagle dog assessed as unbound fraction at 5 uM after 6 hrs by LC-MS/MS analysis based equilibrium dialysis method; assay type: ADME, cell-free, Canis lupus familiaris
[12] = Plasma protein binding in cynomolgus monkey assessed as unbound fraction at 5 uM after 6 hrs by LC-MS/MS analysis based equilibrium dialysis method; assay type: ADME, cell-free, Macaca fascicularis
[13] = Volume of distribution at steady state in Sprague-Dawley rat at 5 mg/kg, po or 1 mg/kg, iv measured upto 8 hrs by LC-MS/MS analysis; assay type: ADME, organism-based; conditions: in vivo
[14] = Volume of distribution at steady state in Beagle dog at 1 mg/kg, po or 0.5 mg/kg, iv measured upto 24 hrs by LC-MS/MS analysis; assay type: ADME, organism-based, Canis lupus familiaris; conditions: in vivo
[15] = Volume of distribution at steady state in cynomolgus monkey at 2 mg/kg, po or 1 mg/kg, iv measured upto 24 hrs by LC-MS/MS analysis; assay type: ADME, organism-based, Macaca fascicularis; conditions: in vivo
[16] = Half life in Sprague-Dawley rat at 5 mg/kg, po or 1 mg/kg, iv measured upto 8 hrs by LC-MS/MS analysis; assay type: ADME, organism-based; conditions: in vivo
[17] = Half life in Beagle dog at 1 mg/kg, po or 0.5 mg/kg, iv measured upto 24 hrs by LC-MS/MS analysis; assay type: ADME, organism-based, Canis lupus familiaris; conditions: in vivo
[18] = Half life in cynomolgus monkey at 2 mg/kg, po or 1 mg/kg, iv measured upto 24 hrs by LC-MS/MS analysis; assay type: ADME, organism-based, Macaca fascicularis; conditions: in vivo
[19] = Oral bioavailability in Sprague-Dawley rat at 5 mg/kg measured upto 8 hrs by LC-MS/MS analysis; assay type: ADME, organism-based; conditions: in vivo
[20] = Oral bioavailability in Beagle dog at 1 mg/kg measured upto 24 hrs by LC-MS/MS analysis; assay type: ADME, organism-based, Canis lupus familiaris; conditions: in vivo
[21] = Oral bioavailability in cynomolgus monkey at 2 mg/kg measured upto 24 hrs by LC-MS/MS analysis; assay type: ADME, organism-based, Macaca fascicularis; conditions: in vivo
Mus musculus = experiment: Antinociceptive activity in po dosed FVB hNav1.7 transgenic mouse model of inherited erythromelalgia harboring I848T mutation assessed as reduction in number of nociceptive aconitine injected after compound administration; assay type: functional, organism-based; conditions: for EC50: Mus musculus; for fEC50: route po
[22] = biological target: Sodium channel protein type 1 subunit alpha (Homo sapiens, UniProt P35498); experiment: Inhibition of full length human Nav1.1 expressed in HEK cells by whole cell voltage clamp analysis; assay type: cell-based
[23] = biological target: Sodium channel protein type 8 subunit alpha (Homo sapiens, UniProt Q9UQD0); experiment: Inhibition of human Nav1.6 expressed in CHO cells by whole cell voltage clamp analysis; assay type: cell-based

Chain of Sodium channel protein type 5 subunit alpha (Q14524 whole entry): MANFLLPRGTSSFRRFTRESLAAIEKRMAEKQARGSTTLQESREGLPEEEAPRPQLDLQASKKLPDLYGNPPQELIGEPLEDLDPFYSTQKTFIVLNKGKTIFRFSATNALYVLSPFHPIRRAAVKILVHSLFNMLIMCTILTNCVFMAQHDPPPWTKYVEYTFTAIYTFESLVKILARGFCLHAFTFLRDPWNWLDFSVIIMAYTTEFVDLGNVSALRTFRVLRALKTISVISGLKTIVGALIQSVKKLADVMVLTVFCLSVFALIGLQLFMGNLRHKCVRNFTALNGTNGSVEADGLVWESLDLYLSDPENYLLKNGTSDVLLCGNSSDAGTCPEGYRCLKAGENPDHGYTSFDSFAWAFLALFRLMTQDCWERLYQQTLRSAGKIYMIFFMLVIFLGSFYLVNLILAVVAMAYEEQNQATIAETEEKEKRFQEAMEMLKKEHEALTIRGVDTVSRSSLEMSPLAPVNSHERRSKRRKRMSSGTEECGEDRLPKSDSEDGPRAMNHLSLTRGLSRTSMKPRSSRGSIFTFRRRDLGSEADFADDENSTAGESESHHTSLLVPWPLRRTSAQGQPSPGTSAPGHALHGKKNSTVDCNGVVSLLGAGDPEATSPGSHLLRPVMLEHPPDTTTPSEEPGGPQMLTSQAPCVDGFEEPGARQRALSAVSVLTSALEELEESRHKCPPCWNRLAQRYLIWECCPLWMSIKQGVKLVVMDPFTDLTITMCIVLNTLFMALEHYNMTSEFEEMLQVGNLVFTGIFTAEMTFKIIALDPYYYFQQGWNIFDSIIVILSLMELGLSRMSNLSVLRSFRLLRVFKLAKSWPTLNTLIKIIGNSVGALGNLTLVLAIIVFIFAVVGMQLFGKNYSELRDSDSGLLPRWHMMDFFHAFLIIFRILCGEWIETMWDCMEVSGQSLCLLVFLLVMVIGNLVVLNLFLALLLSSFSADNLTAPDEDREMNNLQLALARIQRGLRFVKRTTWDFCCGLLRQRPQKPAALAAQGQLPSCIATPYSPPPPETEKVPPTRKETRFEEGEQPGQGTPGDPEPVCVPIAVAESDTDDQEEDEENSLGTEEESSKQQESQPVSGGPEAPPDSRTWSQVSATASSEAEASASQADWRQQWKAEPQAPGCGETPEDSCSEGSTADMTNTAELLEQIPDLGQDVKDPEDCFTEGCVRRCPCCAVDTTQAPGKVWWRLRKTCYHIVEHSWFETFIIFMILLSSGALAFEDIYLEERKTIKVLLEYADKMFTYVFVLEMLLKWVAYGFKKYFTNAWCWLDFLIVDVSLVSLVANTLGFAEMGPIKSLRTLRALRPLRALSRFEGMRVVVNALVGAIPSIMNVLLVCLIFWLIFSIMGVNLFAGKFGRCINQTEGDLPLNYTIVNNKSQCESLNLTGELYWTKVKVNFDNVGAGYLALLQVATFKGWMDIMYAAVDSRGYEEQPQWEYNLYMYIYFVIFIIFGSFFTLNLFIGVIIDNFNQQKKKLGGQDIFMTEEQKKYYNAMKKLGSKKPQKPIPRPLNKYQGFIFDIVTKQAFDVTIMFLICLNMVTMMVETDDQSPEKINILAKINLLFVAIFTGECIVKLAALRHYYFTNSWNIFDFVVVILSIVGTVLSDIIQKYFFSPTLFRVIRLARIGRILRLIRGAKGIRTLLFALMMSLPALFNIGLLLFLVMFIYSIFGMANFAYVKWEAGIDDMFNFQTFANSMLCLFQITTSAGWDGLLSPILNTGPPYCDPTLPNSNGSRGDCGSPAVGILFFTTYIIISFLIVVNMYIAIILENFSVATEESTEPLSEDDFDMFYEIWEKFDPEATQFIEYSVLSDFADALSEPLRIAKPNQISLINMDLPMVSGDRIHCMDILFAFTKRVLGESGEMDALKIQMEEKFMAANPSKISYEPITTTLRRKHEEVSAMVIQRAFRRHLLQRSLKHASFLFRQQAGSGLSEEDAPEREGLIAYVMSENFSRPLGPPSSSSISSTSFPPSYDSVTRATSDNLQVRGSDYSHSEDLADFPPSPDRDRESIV
Chain of Cytochrome P450 3A4 (P08684 whole entry): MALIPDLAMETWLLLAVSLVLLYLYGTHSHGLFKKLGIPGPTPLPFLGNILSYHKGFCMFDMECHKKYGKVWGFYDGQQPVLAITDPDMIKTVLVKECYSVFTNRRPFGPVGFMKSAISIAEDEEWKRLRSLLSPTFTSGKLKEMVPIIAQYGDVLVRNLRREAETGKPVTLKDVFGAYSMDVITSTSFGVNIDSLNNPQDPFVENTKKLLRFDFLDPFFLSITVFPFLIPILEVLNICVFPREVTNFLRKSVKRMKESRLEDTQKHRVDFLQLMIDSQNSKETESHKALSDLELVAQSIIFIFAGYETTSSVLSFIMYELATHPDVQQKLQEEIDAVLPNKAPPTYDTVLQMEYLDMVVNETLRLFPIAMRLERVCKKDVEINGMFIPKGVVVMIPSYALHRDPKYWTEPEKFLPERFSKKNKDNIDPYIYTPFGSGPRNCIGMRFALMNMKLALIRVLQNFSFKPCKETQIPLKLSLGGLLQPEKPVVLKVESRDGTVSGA
Chain of Sodium channel protein type 2 subunit alpha (Q99250 whole entry): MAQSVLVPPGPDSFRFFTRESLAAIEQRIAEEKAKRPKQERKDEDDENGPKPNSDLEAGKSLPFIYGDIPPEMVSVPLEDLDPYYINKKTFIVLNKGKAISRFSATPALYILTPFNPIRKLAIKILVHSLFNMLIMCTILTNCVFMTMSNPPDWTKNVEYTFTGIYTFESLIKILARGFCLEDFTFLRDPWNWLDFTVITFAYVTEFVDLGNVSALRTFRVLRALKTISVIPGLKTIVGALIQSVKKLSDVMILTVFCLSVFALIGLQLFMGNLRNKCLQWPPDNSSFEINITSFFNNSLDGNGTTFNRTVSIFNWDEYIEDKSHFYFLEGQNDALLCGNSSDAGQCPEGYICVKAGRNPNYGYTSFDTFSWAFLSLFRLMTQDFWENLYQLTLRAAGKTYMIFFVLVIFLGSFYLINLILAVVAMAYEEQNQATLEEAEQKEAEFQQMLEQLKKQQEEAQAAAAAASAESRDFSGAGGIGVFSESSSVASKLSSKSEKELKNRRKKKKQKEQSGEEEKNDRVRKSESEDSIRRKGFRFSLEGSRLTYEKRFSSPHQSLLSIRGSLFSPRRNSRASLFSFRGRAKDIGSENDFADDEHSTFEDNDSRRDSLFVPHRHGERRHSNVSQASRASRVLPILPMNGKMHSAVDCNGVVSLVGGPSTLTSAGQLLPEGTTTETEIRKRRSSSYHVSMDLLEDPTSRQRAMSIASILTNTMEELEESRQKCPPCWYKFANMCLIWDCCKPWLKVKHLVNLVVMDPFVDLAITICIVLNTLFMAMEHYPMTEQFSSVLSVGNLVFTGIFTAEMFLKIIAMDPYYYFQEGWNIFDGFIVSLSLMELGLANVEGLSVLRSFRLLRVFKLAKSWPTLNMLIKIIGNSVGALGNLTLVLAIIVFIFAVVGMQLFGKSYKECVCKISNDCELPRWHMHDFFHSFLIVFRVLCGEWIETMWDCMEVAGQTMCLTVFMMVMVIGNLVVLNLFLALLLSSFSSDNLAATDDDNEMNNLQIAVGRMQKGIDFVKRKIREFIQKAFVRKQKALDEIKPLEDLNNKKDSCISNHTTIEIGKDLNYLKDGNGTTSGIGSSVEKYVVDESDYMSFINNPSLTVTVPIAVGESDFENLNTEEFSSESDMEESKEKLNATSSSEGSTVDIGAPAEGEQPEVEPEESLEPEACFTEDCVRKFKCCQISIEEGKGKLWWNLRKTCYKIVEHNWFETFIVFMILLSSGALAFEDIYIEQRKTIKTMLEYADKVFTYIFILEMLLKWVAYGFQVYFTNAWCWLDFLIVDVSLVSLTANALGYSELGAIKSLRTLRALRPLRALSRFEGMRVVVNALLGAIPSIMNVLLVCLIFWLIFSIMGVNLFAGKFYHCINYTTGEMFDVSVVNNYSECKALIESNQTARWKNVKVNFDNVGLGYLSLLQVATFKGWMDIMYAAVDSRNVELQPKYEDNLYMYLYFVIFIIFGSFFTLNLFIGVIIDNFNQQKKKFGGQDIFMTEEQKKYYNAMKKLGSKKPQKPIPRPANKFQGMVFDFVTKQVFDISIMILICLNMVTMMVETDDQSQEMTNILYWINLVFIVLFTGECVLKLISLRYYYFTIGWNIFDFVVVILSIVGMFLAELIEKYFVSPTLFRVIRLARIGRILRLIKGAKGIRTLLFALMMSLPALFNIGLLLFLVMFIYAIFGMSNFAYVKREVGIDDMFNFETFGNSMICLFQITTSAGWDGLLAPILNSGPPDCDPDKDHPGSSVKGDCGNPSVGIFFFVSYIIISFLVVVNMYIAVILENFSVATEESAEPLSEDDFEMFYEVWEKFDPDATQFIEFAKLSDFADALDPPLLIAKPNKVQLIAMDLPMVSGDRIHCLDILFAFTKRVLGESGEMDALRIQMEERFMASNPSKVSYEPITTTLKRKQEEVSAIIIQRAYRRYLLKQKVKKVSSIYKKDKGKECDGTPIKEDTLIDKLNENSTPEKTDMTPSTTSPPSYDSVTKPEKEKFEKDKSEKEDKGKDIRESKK

logD [2]: 0.1
SMILES: CS(=O)(=O)NC(=O)c1cc(C2CC2)c(OCC2CN(Cc3ccccc3)C2)cc1F
IC50 [1]: > 30 µM

CLint scaled at 1 µM [3]: 9.9 mL/min/kg
CLint scaled at 1 µM [4]: 15 mL/min/kg
SMILES: CS(=O)(=O)NC(=O)c1cc(C2CC2)c(OCC2CCN(Cc3ccc(Cl)cc3)CC2)cc1F
IC50 [1]: 27 µM
Ratio IC50 (Homo sapiens): 667

CLint scaled at 1 µM [3]: 9.7 mL/min/kg
CLint scaled at 1 µM [4]: 15 mL/min/kg
logD [2]: 2
SMILES: CS(=O)(=O)NC(=O)c1cc(C2CC2)c(OCC2CCN(Cc3cc(Cl)cc(Cl)c3)CC2)cc1F
IC50 [1]: 7 µM
Ratio IC50 (Homo sapiens): 58

CLint scaled at 1 µM [3]: 18 mL/min/kg
CLint scaled at 1 µM [4]: 16 mL/min/kg
logD [2]: 3.2
SMILES: O=C(NS(=O)(=O)C1CC1)c1cc(C2CC2)c(OCC23CC4CC(CC(C4)C2)C3)cc1F
IC50 [1]: 0.26 µM
Ratio IC50 (Homo sapiens): 19

CLint scaled at 1 µM [3]: 5.5 mL/min/kg
CLint scaled at 1 µM [4]: < 6.2 mL/min/kg
logD [2]: 2.7
SMILES: CS(=O)(=O)NC(=O)c1cc(C2CC2)c(OCC2CCN(C(c3ccccc3)c3ccccc3)CC2)cc1F
IC50 [1]: 0.59 µM
Ratio IC50 (Homo sapiens): 8.9

CLint scaled at 1 µM [3]: 11 mL/min/kg
CLint scaled at 1 µM [4]: 12 mL/min/kg
logD [2]: 3.8
SMILES: O=C(NS(=O)(=O)N1CCOCC1)c1cc(C2CC2)c(OCC23CC4CC(CC(C4)C2)C3)cc1F
IC50 [1]: 0.11 µM
Ratio IC50 (Homo sapiens): 1

CLint scaled at 1 µM [3]: 19 mL/min/kg
CLint scaled at 1 µM [4]: 17 mL/min/kg
logD [2]: 3.3
SMILES: CS(=O)(=O)NC(=O)c1cc(C2CC2)c(OCC23CC4CC(CC(C4)C2)C3)cc1F
IC50 [1]: 1.1 µM

CLint scaled at 1 µM [3]: 4.8 mL/min/kg
CLint scaled at 1 µM [4]: 15 mL/min/kg
logD [2]: 0.3
SMILES: CS(=O)(=O)NC(=O)c1cc(C2CC2)c(OCC2CCN(Cc3ccccc3)CC2)cc1F
IC50 [1]: > 30 µM
Ratio IC50 (Homo sapiens): > 9.1

CLint scaled at 1 µM [3]: 8.5 mL/min/kg
CLint scaled at 1 µM [4]: < 6.2 mL/min/kg
logD [2]: 4.4
SMILES: O=C(NS(=O)(=O)N1CCCC1)c1cc(C2CC2)c(OCC23CC4CC(CC(C4)C2)C3)cc1F
IC50 [1]: 1.5 µM
Ratio IC50 (Homo sapiens): 9

SMILES: O=C(NS(=O)(=O)N1CCC1)c1cc(C2CC2)c(OCC23CC4CC(CC(C4)C2)C3)cc1F
IC50 [1]: 0.87 µM
CLint scaled at 1 µM [3]: 10 mL/min/kg
CLint scaled at 1 µM [4]: 11 mL/min/kg
logD [2]: 3.1
IC50 [5]: 0.0189 µM
IC50 [6]: 0.0085 µM
IC50 (Cytochrome P450 3A4): > 10 µM
solubility kinetic [7]: 5.3 µM (≈ 2.45 µg/mL)
Fu [8]: 0.025%
Papp A→B [9]: 4.7 ×10⁻⁶ cm/s
Fu [10]: 0.013%
Fu [11]: 0.005%
Fu [12]: 0.025%
Vdss [13]: 0.38 L/kg
Vdss [14]: 0.17 L/kg
Vdss [15]: 0.3 L/kg
half-life [16]: 0.95 h
half-life [17]: 5.5 h
half-life [18]: 1.6 h
bioavailability [19]: 34%
bioavailability [20]: 50%
bioavailability [21]: 30%
EC50 (Mus musculus): 1.7 µM
fEC50 (Mus musculus): 0.42 nM

CLint scaled at 1 µM [3]: 7.8 mL/min/kg
CLint scaled at 1 µM [4]: < 6.2 mL/min/kg
logD [2]: 3.9
SMILES: CC(C)(c1cc(Cl)cc(Cl)c1)N1CCC(COc2cc(F)c(C(=O)NS(C)(=O)=O)cc2C2CC2)CC1
IC50 [1]: 3.9 µM
Ratio IC50 (Homo sapiens): 144

CLint scaled at 1 µM [3]: 17 mL/min/kg
CLint scaled at 1 µM [4]: 16 mL/min/kg
logD [2]: 2.2
SMILES: C[C@H](c1cc(Cl)cc(Cl)c1)N1CCC(COc2cc(F)c(C(=O)NS(C)(=O)=O)cc2C2CC2)CC1

CLint scaled at 1 µM [3]: 9.9 mL/min/kg
logD [2]: 1.2
SMILES: CS(=O)(=O)NC(=O)c1cc(C2CC2)c(OCC2CCN(Cc3ccc(OC(F)(F)F)cc3)CC2)cc1F
IC50 [1]: 17 µM
Ratio IC50 (Homo sapiens): 531

CLint scaled at 1 µM [3]: 9.6 mL/min/kg
CLint scaled at 1 µM [4]: < 6.2 mL/min/kg
logD [2]: 2.3
IC50 [22]: 0.202 µM
IC50 [5]: 0.038 µM
IC50 [23]: 0.198 µM
IC50 (Cytochrome P450 3A4): > 10 µM
solubility kinetic [7]: 52 µM (≈ 28.3 µg/mL)
Fu [8]: 0.196%
Papp A→B [9]: 11 ×10⁻⁶ cm/s
Fu [10]: 0.278%
Fu [11]: 0.157%
Fu [12]: 0.129%
Vdss [13]: 0.6 L/kg
Vdss [14]: 0.33 L/kg
Vdss [15]: 0.29 L/kg
half-life [16]: 5 h
half-life [17]: 46 h
half-life [18]: 4.4 h
bioavailability [19]: 68%
bioavailability [20]: 100%
bioavailability [21]: 82%
EC50 (Mus musculus): 1.1 µM
SMILES: C[C@@H](c1cc(Cl)cc(Cl)c1)N1CCC(COc2cc(F)c(C(=O)NS(C)(=O)=O)cc2C2CC2)CC1
IC50 [1]: 1.5 µM
fEC50 (Mus musculus): 3.5 nM

CLint scaled at 1 µM [3]: 6.7 mL/min/kg
CLint scaled at 1 µM [4]: 15 mL/min/kg
logD [2]: 1.8
SMILES: CS(=O)(=O)NC(=O)c1cc(C2CC2)c(OCC2CN(C(c3ccccc3)c3ccccc3)C2)cc1F
IC50 [1]: 1.1 µM
Ratio IC50 (Homo sapiens): 48

CLint scaled at 1 µM [3]: 8.6 mL/min/kg
CLint scaled at 1 µM [4]: 7.5 mL/min/kg
logD [2]: 0.9
SMILES: CS(=O)(=O)NC(=O)c1cc(C2CC2)c(OCC2CCN(C(=O)c3cc(Cl)cc(Cl)c3)CC2)cc1F
IC50 [1]: 6.4 µM
Ratio IC50 (Homo sapiens): 183

CLint scaled at 1 µM [3]: 16 mL/min/kg
CLint scaled at 1 µM [4]: 6.7 mL/min/kg
logD [2]: 3.4
SMILES: O=C(NS(=O)(=O)C1COC1)c1cc(C2CC2)c(OCC23CC4CC(CC(C4)C2)C3)cc1F
IC50 [1]: 0.75 µM
Ratio IC50 (Homo sapiens): 20
